Where “and” joins values, the source holds several entries; their conditions need not be identical. Identical values can stand only once. Like-named read-outs stand apart in the source and are kept apart here.
How the values were obtained:
[1] = tested on: LoVo colon carcinoma human xenografts; assay: Efficacy after repeated ip injections (2Q1D5), LoVo xenograft; type: in vivo, NMRI nude mice; settings: for TGD: 190 to 1,000 mm^3
Procedure: FIG. 9. Efficacy study of PhAc-ALGP-Dox in comparison with free Doxorubicin in NMRI nude mice bearing LoVo colon carcinoma human xenografts. Drugs or controls were administered by the i.p. route twice a day for five consecutive days (arrows). The mice receiving a constant volume (10 μL/g) of either saline (-●-) or of the different dosing solutions: PhAc-ALGP-Dox 25 μmol/kg (*), 35 μmol/kg (◯) and 50 μmol/kg (+); Dox 0.5 μmol/kg (▪), 1 μmol/kg (▴) and 2 μmol/kg (×).
The efficacy of PhAc-ALGP-Dox was assessed using athymic mice (nude/nude NMRI) carrying ectopic xenograft of human LoVo colon carcinoma or of MX-1 mammary carcinoma in comparison with free Doxorubicin. Tumors were established by a subcutaneous implantation of cells (10^7 cells) in the right flank of 6 weeks old female NMRI nude mice (Harlan). Treatments were administered when the tumors reached a size of 150-200 mm^3 (measured using a caliper and calculated with the following formula: […]). Animals were randomly assigned to groups of 4 to-6 animals. […] Compounds were delivered by bolus intraperitoneal injection (ip) at 10 μl/g. During the course of the experiment, clinical signs, body weight and tumor volume were controlled twice a week. Results are presented as the evolution of mean tumor volume as a function of time. Optimal T/C (ratio of mean tumor volume of treated versus control mice) values and TGD (tumor growth delay in reaching 1000 mm^3) were used as a measure of treatment efficacy. […] A statistical analysis was performed at day 22 using the Mann Whitney t test of the Graph Pad Prism 5.0 software.

[2] = tested on: orthotopic HCT116 human colon tumors; assay: Orthotopic HCT116 colon carcinoma tumor model; type: in vivo, SCID mice
Procedure: (§1) FIG. 14. Evaluation of the antitumor effect of PhAc-ALGP-dox in SCID mice bearing orthotopic HCT116 human colon tumors. SCID mice were injected orthotopically (in the caecum) with human HCT116 colon tumor cells. One group was treated with saline while groups 2 and 3 received 10 intraperitoneal injections (2Q1D5) of 35 and 50 μmol/kg of PhAc-ALGP-doxorubicin. Primary tumor weights were recorded on day 34 post cell inoculation.
as §1, with “15.” for “14.”, “antimetastatic” for “antitumor”, “effect (in liver)” for “effect”, “Liver metastases” for “Primary tumor weights”
HCT116 cells were subcutaneously injected into SCID mice. Once xenografts were established, they were excised and orthotopically implanted into the ceacum of other female γ-irradiated SCID mice using microsurgical techniques. On day 12 after the cancer cells injection, the mice were randomized in four groups of 16. […] On day 34 after injection into the caecum of colonic cancer cells the animals were sacrificed, the number of metastases was counted macroscopically and the primary tumors weighted.

[3] = tested on: UZLX-STS3 dedifferentiated liposarcoma xenograft
Text: FIG. 16. Effect of PhAc-ALGP on a UZLX-STS3 xenograft model. UZLX-STS3 is a tissue xenograft derived from a patient diagnosed with dedifferentiated liposarcoma (DDLPS).
A total of 24 mice were bilaterally transplanted with UZLX-STS3 (tissue xenografts of passage 10). Animals were randomly assigned to three different groups: a control group (saline; -●-); A PhAc-ALGP-doxorubicin group (cumulative dose 1.20 mmol/kg; -▪-) and a doxorubicin group (cumulative dose 0.03 mmol/kg; -▴-). The drugs were administered intraperitoneally during 7 days by continuous release via an Alzet® osmotic pump, with delivery rate of 0.5 μl/h over 7 days. The experiment lasted 21 days (7 days of treatment+14 days of observation). Tumor volume and mouse body weight were evaluated at baseline and subsequently three times per week until the end of each experiment. After 21 days mice were sacrificed. Tumor volume is recorded 3× weekly by 3-dimensional caliper measurement. Data are presented as the average of the relative tumor volumes per group±standard deviation.
The comparison between the tumor volumes on day zero and the volumes on the last day of the experiments was done by Wilcoxon's matched paired test. The comparisons between different groups were performed using the Mann-Whitney U test (relative tumor volumes, histologic assessment). […] The […] software (StatSoft, version 12.0) was used for all the calculations.
(§2) FIG. 18. Data are presented as the average of the white blood cell count of mice in every group±standard deviation. The dashed lines mark the reference values for nu/nu NMRI mouse strain. PhAc-ALGP-doxorubicin (-▪-); Dox (-▴-); and saline (-●-). Total white blood cell count was determined using the CELL-DYN 3500 multiparameter automated hematology analyzer with optimization for murine blood parameters (Abott Diagnostics, Division, Ill., USA)
as §2, with “19.” for “18.”, “neutrophil” for “white blood cell”, “Neutrophil” for “Total white blood cell”

COc1cccc2c1C(=O)c1c(O)c3c(c(O)c1C2=O)C[C@@](O)(C(=O)CO)C[C@@H]3O[C@H]1C[C@H](N)[C@H](O)[C@H](C)O1 [Doxorubicin, reference compound]
TGD ([1]; 0.5 μmol/kg ip 2Q1D5): 1 days | TGI [% (day)] ([1]; 1 μmol/kg ip 2Q1D5): no antitumor activity and no | TGD ([1]; 1 μmol/kg ip 2Q1D5): 0 days | TGD ([1]; 2 μmol/kg ip 2Q1D5): 6 days | TGI [% (day)] ([1]; 2 μmol/kg ip 2Q1D5, day 22, listed as Dox): 45% | mortality ([2]; 2 μmol/kg ip 2Q1D5, SCID mice): all animals died within 10 days | relative tumor volume at day 21 ([3]; ip, 30 umol/kg): 246%

COc1cccc2c1C(=O)c1c(O)c3c(c(O)c1C2=O)CC(O)(C(=O)CO)CC3OC1CC(NC(=O)C2CCCN2C(=O)CNC(=O)C(CC(C)C)NC(=O)C(C)NC(=O)CP(=O)(O)O)C(O)C(C)O1 (stereo not shown) [PhAc-ALGP-Dox, PhAc-ALGP-doxorubicin]
TGD ([1]; 25 μmol/kg ip 2Q1D5): 5 days | TGI [% (day)] ([1]; 25 μmol/kg ip 2Q1D5, day 22): 32 (22) % | TGD ([1]; 35 μmol/kg ip 2Q1D5): 13 days | TGI [% (day)] ([1]; 35 μmol/kg ip 2Q1D5, day 22): 60 (22) % | TGD ([1]; 50 μmol/kg ip 2Q1D5): 17 days | TGI [% (day)] ([1]; 50 μmol/kg ip 2Q1D5, day 22): 65% and 65 (22) % | number of hepatic metastases ([2]; 30 μmol/kg, day 34): 24 | primary tumor weight ([2]; 30 μmol/kg, day 34): 0.69 g | mice surviving 34 days ([2]; 35 μmol/kg ip 2Q1D5, groups of 16): 12 mice | mice surviving 34 days ([2]; 50 μmol/kg ip 2Q1D5, groups of 16): 9 mice | mean number of hepatic metastases ([2]; 50 μmol/kg, day 34): 1.78 | primary tumor weight ([2]; 50 μmol/kg, day 34): 0.44 g | neutrophil count (in words) ([3]; 21 days after administration at 40-times higher dose than free doxorubicin): unchanged netrophil count | relative tumor volume at day 21 ([3]; cumulative dose 1.20 mmol/kg ip via osmotic pump over 7 days, day 0 = 100%): 105% | total white blood cells and neutrophils (in words) ([3]; cumulative dose 1.20 mmol/kg, versus control or doxorubicin-treated animals): No major changes
